≈ marks a conversion by molar mass, not a printed value. Like-named read-outs stand apart in the source and are kept apart here. Square brackets hold non-standard residues; d marks the D form. Peptide text beside a SMILES is read from it. Dab = NCC[C@H](N)C(=O)O
What was measured:
Coccidioides sp. = format: cell-based
C. parapsilosis = assay: Antifungal MIC, CLSI M27/M38, half-strength potato dextrose broth; format: cell-based, Candida parapsilosis; details: C. parapsilosis ATCC 22019; 24-72 hours
Method: (§1) Testing for antifungal activity used half-strength potato dextrose broth for peptides and RPMI for comparator antifungals fluconazole and voriconazole. CLSI M27 and M38 methodologies used for to measure MICs. Minimal Inhibitory Concentration (MIC) is the concentration of the compound, protein, or peptide at which there is no significant growth of the microorganism relative to the growth of the microorganism in growth medium lacking the compound, protein, or peptide.
(§2) […] The concentration range for peptides in potato dextrose broth was 0.06-2 mcg/ml, the concentration range for fluconazole was 0.125-64 mcg/ml, and the concentration range for voriconazole was 0.03-16 mcg/ml. MICs were determined at 24-72 hours.

Candida albicans = assay: as above; format: cell-based
Method: as §1, §2

Candida auris = assay: as above; format: cell-based
Method: as §1, §2

Fusarium (F. solani) = assay: as above; format: cell-based; details: Fusarium F4 (F. solani)
Method: as §1, §2

C. krusei = assay: as above; format: cell-based; details: C. krusei ATCC 6258; 24-72 hours
Method: as §1, §2

Aspergillus fumigatus = assay: as above; format: cell-based
Method: as §1, §2

P. variotii = assay: as above; format: cell-based; details: P. variotii MYA-363; 24-72 hours
Method: as §1, §2

Fusarium (F. oxysporum) = assay: as above; format: cell-based
Method: as §1, §2

| Structure (SMILES) | MIC (μM) Botrytis cinerea (Botrytis cinerea) | MIC Values (μM) against B. cinerea (Botrytis cinerea) | SFM + 2 mM CaCl2 MIC (Botrytis cinerea) | SFM + 100 mM KCl MIC (Botrytis cinerea) | SFM + 100 mM NaCl MIC (Botrytis cinerea) | SFM MIC (Botrytis cinerea) | MIC 100% (Coccidioides sp.; Coccidioides sp. Cocci1) | MIC 100% (Coccidioides sp.; Coccidioides sp. Cocci2) | MIC 100% (Coccidioides sp.; Coccidioides sp. DI17-143) | MIC 100% (C. parapsilosis) | MIC 100% (Candida albicans; Candida albicans ATCC 90028) | MIC 100% (Candida albicans; Candida albicans CA3) | MIC 100% (Candida albicans; Candida albicans SC5314) | MIC 100% (Candida auris; Candida auris DI17-46) | MIC 100% (Candida auris; Candida auris DI17-47) | MIC 100% (Candida auris; Candida auris DI17-48) | MIC 100% (Fusarium (F. solani)) | MIC 100% (C. krusei) | MIC 100% (Aspergillus fumigatus; Aspergillus fumigatus AF293) | MIC 100% (Aspergillus fumigatus; Aspergillus fumigatus DI15-106) | other results |
| --- | --- | --- | --- | --- | --- | --- | --- | --- | --- | --- | --- | --- | --- | --- | --- | --- | --- | --- | --- | --- | --- |
| CC[C@H](C)[C@H](NC(=O)[C@H](CCCNC(=N)N)NC(=O)[C@@H](NC(=O)[C@H](CS)NC(=O)[C@H](Cc1ccccc1)NC(=O)[C@H](CS)NC(=O)[C@H](CCCNC(=N)N)NC(=O)[C@H](CCCNC(=N)N)NC(=O)[C@H](CCCNC(=N)N)NC(=O)[C@H](Cc1ccccc1)NC(=O)CNC(=O)[C@H](CCCNC(=N)N)NC(=O)[C@H](CS)NC(=O)[C@H](CCCNC(=N)N)NC(=O)CNC(=O)CN)[C@@H](C)O)C(=O)N[C@@H](CS)C(N)=O [GMA4C_V2A] (H-GGRCRGFRRRCFCTRIC-NH2; N-terminus assumed) | 6 µM (≈ 12.3 µg/mL) | 3 µM (≈ 6.14 µg/mL) | >6 µM | 6 µM | 3 µM | 6 µM | 8 µg/mL (≈ 3.91 µM) | 16 µg/mL (≈ 7.82 µM) | 16 µg/mL (≈ 7.82 µM) | 8 µg/mL (≈ 3.91 µM) | 16 µg/mL (≈ 7.82 µM) | 16 µg/mL (≈ 7.82 µM) | 16 µg/mL (≈ 7.82 µM) | 16 µg/mL (≈ 7.82 µM) | 16 µg/mL (≈ 7.82 µM) | 16 µg/mL (≈ 7.82 µM) | 8 µg/mL (≈ 3.91 µM) | 16 µg/mL (≈ 7.82 µM) | 32 µg/mL (≈ 15.6 µM) | >32 µg/mL | B. cinerea MIC (Botrytis cinerea): 3 µM; MIC 100% (Aspergillus fumigatus; Aspergillus fumigatus DI15-116): >32 µg/mL; MIC 100% (P. variotii): 8 µg/mL (≈ 3.91 µM); MIC 100% (Fusarium (F. oxysporum); Fusarium F1 (F. oxysporum)): 8 µg/mL (≈ 3.91 µM); MIC 100% (Fusarium (F. oxysporum); Fusarium F2 (F. oxysporum)): 16 µg/mL (≈ 7.82 µM) |
| NCC[C@H](NC(=O)CNC(=O)[C@@H](N)Cc1ccccc1)C(=O)N[C@@H](CS)C(=O)N[C@@H](CCN)C(=O)NCC(=O)N[C@@H](Cc1ccccc1)C(=O)N[C@@H](CCN)C(=O)N[C@@H](CCN)C(=O)N[C@@H](CCN)C(=O)N[C@@H](CS)C(=O)N[C@@H](Cc1ccccc1)C(=O)N[C@@H](CS)C(=O)N[C@@H](Cc1c[nH]c2ccccc12)C(=O)N[C@@H](CCN)C(=O)N[C@@H](Cc1c[nH]c2ccccc12)C(=O)N[C@@H](CS)C(N)=O [GMA4C_V5A, FG(Dab)C(Dab)GF(Dab)(Dab)(Dab)CFCW(Dab)WC-NH2] (H-FG[Dab]C[Dab]GF[Dab][Dab][Dab]CFCW[Dab]WC-NH2; N-terminus assumed) | 6 µM (≈ 11.8 µg/mL) | 3 µM (≈ 5.88 µg/mL) | >6 µM | >6 µM | 6 µM | 6 µM | 2 µg/mL (≈ 1.02 µM) | 16 µg/mL (≈ 8.17 µM) | 16 µg/mL (≈ 8.17 µM) | 8 µg/mL (≈ 4.08 µM) | 16 µg/mL (≈ 8.17 µM) | 8 µg/mL (≈ 4.08 µM) | 16 µg/mL (≈ 8.17 µM) | 16 µg/mL (≈ 8.17 µM) | 16 µg/mL (≈ 8.17 µM) | 16 µg/mL (≈ 8.17 µM) | 8 µg/mL (≈ 4.08 µM) | 8 µg/mL (≈ 4.08 µM) | 32 µg/mL (≈ 16.3 µM) | >32 µg/mL | MIC 100% (Aspergillus fumigatus; Aspergillus fumigatus DI15-116): >32 µg/mL; MIC 100% (P. variotii): 4 µg/mL (≈ 2.04 µM); MIC 100% (Fusarium (F. oxysporum); Fusarium F1 (F. oxysporum)): 8 µg/mL (≈ 4.08 µM); MIC 100% (Fusarium (F. oxysporum); Fusarium F2 (F. oxysporum)): 16 µg/mL (≈ 8.17 µM) |

Source: US20220408731A1, “MODIFIED ANTIMICROBIAL PEPTIDES” (priority 2021, published 2022)
